Results from ChEMBL document CHEMBL1132460, “Affinity and selectivity of matrix metalloproteinase inhibitors: a chemometrical study from the perspective of ligands and proteins” (J Med Chem, 1999).

How the values were obtained:
[1] = Affinity ratio of IC50 of MMP-8 to IC50 of MMP-3
Stromelysin-1 = Stromelysin-1 (Homo sapiens, UniProt P08254); test: Inhibitory concentration against human matrix metalloprotease-3 (MMP-3)
Neutrophil collagenase = Neutrophil collagenase (Homo sapiens, UniProt P22894); test: Inhibitory concentration against human matrix metalloprotease-8 (human neutrophil collagenase, MMP-8)
Neutrophil collagenase, sequence (P22894 whole entry): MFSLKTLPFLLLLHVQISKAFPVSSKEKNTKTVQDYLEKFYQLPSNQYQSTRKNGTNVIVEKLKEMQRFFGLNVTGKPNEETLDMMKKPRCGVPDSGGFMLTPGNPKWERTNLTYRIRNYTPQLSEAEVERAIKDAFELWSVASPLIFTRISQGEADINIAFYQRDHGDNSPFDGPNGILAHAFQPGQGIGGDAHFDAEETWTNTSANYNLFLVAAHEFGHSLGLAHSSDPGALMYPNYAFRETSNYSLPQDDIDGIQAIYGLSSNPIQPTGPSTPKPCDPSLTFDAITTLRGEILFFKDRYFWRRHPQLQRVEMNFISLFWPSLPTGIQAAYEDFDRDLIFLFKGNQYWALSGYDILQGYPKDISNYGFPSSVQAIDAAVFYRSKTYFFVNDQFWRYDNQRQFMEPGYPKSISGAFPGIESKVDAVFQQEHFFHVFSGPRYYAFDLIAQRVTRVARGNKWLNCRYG

Stromelysin-1, sequence (P08254 whole entry): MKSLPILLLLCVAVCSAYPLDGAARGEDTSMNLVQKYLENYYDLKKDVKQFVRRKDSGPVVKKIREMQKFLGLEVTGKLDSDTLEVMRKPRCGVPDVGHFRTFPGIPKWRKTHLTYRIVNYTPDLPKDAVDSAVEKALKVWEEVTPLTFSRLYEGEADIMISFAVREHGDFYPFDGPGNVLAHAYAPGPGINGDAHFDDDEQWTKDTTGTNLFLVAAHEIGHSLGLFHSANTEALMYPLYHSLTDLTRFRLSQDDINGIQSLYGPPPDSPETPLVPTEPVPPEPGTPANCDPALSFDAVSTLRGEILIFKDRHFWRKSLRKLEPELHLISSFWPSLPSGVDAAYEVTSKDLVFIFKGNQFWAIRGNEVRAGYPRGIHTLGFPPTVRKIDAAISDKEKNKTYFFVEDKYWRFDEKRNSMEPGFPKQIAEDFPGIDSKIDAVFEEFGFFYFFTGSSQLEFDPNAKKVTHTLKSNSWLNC

| SMILES | Selectivity [1] | IC50 (Stromelysin-1) [nM l-1] | IC50 (Neutrophil collagenase) [nM] |
| --- | --- | --- | --- |
| COc1ccc(S(=O)(=O)N2Cc3cc(N)ccc3CC2C(=O)O)cc1 (stereo unspecified) | 0.7 | 10000 | 2000 |
| COc1ccc(S(=O)(=O)N2Cc3cc(NC(=O)[C@H](C)N)ccc3CC2C(=O)O)cc1 (stereo partly specified) | 0.7 | 10000 | 2000 |
